Reference: patent US9861600B2, “Methods and compositions for treating and identifying compounds to treat age-related macular degeneration treatment” (Arizona Board of Regents on behalf of the University of …, priority 2008, dated 2018)
Where “and” joins values, the source holds several entries; their conditions need not be identical. Identical values can stand only once. Like-named read-outs stand apart in the source and are kept apart here.

What was measured:
OA1 [1] = molecular target: T1, OA1 (Homo sapiens, UniProt P51810); settings: 1.0 μM
T1 sequence (P51810 whole entry): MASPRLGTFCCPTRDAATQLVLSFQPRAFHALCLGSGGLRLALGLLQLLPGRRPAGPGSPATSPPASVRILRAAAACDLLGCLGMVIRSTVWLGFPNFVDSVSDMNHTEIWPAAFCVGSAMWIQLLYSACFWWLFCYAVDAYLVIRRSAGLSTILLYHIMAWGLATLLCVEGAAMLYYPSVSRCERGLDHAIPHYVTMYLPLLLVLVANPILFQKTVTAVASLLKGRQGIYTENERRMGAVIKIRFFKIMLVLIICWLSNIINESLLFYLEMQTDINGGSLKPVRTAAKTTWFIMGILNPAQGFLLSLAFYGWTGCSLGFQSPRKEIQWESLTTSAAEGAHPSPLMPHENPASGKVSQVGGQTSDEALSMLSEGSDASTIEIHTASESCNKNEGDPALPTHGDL

OA1 [2] = molecular target: T1, OA1; assay: Radiolabeled ligand binding of [3H]-L-DOPA to CHO cells transfected to express OA1 (saturation); parameters: expressed in transfected cells; host or cells: CHO cells (ATCC)
OA1 [3] = molecular target: T1, OA1; assay: Measurement of [Ca2+]i (Fura-2 ratiometric imaging) in CHO cells transfected to express OA1; format: cell-based; parameters: expressed in transfected cells; host or cells: CHO cells (ATCC)
[4] = system: retinal ganglion cells and photoreceptors; assay: L-DOPA supplementation in drinking water of tyrosinase deficient pregnant mice and pups (E7 to P14); format: in vivo; settings: 1.0 mg/ml in drinking water, E7 to P14, tyrosinase deficient mice
PEDF secretion by RPE = assay: PEDF secretion by pigmented RPE cells (ELISA of conditioned medium); format: cell-based
Procedure: Mutations in OA1 cause defects in the development of the neurosensory retina. […] After treatment, the cells were returned to standard medium without exogenous L-DOPA for three days. Control cells were not treated with L-DOPA, but the medium was changed at the same time the experimental cells were returned to normal medium. Conditioned medium was collected after three days and PEDF was measured.
In these experiments, pigmented RPE cells were either maintained in DMEM, or DMEM containing 200 μM PTU for three days, then PEDF secretion was measured. […] The data are presented as percent of control for this experiment because the cultures used varied in both pigmentation and PEDF expression before the experiment began.

OA1 [5] = molecular target: T1, OA1; settings: untransfected cells
OA1 [6] = molecular target: T1, OA1; assay: Competitive binding against 5 μM [H3] L-DOPA in OA1 transfected CHO cells; parameters: expressed in transfected cells; host or cells: CHO cells (ATCC)
OA1 [7] = molecular target: T1, OA1; assay: Cell surface biotinylation / western blot of OA1 in cultured cells at lowered tyrosine; format: cell-based; parameters: expressed in transfected cells; host or cells: CHO cells (ATCC)
Procedure: Endosomal localization of GPCRs occurs normally after exposure to a ligand. Therefore, it was investigated whether a ligand for the receptor was present in the standard incubation medium that could drive internalization of OA1. Since the standard culture medium contains 500 μM tyrosine, and tyrosine is the starting material for pigment synthesis, the effect of tyrosine on receptor distribution was evaluated. To test whether tyrosine affected OA1 distribution in cultured cells DMEM was formulated without tyrosine, and dialyzed fetal bovine serum was used. In the presence of tyrosine-free medium, OA1 was detected on the plasma membrane of cultured RPE cells both in the absence (not shown), and in medium containing low concentrations of tyrosine (1 μM, FIG. 1 B). […] Similarly, OA1-GFP expressed in COS illustrated a cell surface expression that was tyrosine sensitive (FIG. 1 C). Quantification of six such experiments indicated significant variability in the amount of OA1 found at the cell surface using transient transfections. […]
Not only was the distribution of OA1 in transfected cells sensitive to tyrosine levels in the medium, total OA1-GFP expression was increased 5-fold in cells maintained in 1 μM tyrosine. To verify that this difference related to OA1 expression rather than cell number, actin expression was evaluated from the paired samples. […]

Molecule: N[C@@H](Cc1ccc(O)c(O)c1)C(=O)O [L-DOPA, 2-amino-3-(3,4-dihydroxyphenyl)propanoic acid]
- change in [Ca2+]i (OA1 [1]; RPE cells transfected to express OA1): increase
- change in [Ca2+]i (OA1 [1]; RPE expressing endogenous OA1): increase
- Kd (OA1 [2]; Kd of L-DOPA binding to OA1, OA1 transfected CHO cells, [3H]-L-DOPA): 9.34 µM and 9.35 µM
- specific binding of L-DOPA (OA1 [2]; untransfected CHO cells): No specific binding
- pertussis toxin sensitivity of the [Ca2+]i increase (OA1 [3]; in presence of pertussis toxin, CHO and RPE): not pertussis toxin sensitive
- photoreceptor nuclear area (measure of photoreceptor numbers) [4]: increased the photoreceptor nuclear area
- retinal ganglion cell numbers [4]: increases retinal ganglion cell numbers
- PEDF secretion (PEDF secretion by RPE; 1 μM for one hour, medium collected after three days, vs paired control pigmented RPE): significant increase
- PEDF secretion (PEDF secretion by RPE; 1.0 μM in continued presence of PTU, measured after 72 hours): increasing PEDF secretion
- β-arrestin distribution response (OA1 [5]): no response

Molecule: NC(=S)Nc1ccccc1 [PTU, phenylthiourea]
- PEDF secretion (PEDF secretion by RPE; 200 μM for three days, pigmented RPE): significant decrease

Molecule: N[C@@H](Cc1ccc(O)cc1)C(=O)O [tyrosine]
- Ki (OA1 [6]): 52.9 µM
- competition with L-DOPA for OA1 binding (OA1 [6]; competitor at 1 mM): competed with L-DOPA
- effect on [Ca2+]i (OA1 [3]; concentrations up to 1 mM, OA1 transfected CHO cells): no positive effect
- OA1 in the bound (cell surface) fraction (OA1 [7]; OA1-GFP transfected COS cells maintained in 1 μM tyrosine): 5-40%
- increase of total OA1-GFP expression (OA1 [7]; transfected cells in 1 μM tyrosine vs normal DMEM (500 μM)): 5 fold

Molecule: pertussis toxin
- basal level of [Ca2+]i (OA1 [3]; all cells studied (transfected CHO and RPE, RPE with endogenous OA1)): lowered the basal level
